Assay results from patent publication US20230000885A1, “Methods of Treating Psychological and Brain Disorders” (University of Maryland, Baltimore, priority 2019, published 2023).
Entries after “also recorded” stand apart in the source; their conditions may differ.

Columns and labels:
5-HT1BRs = 5-HT1BRs (Homo sapiens, UniProt P28222); conditions: cited from earlier work
5-HTRs = conditions: read-out: affinities at almost all 5-HTRs; cited from earlier work
male C57BI/6J mice [1] = test: female urine sniff test (FUST) after chronic multimodal stress; type: in vivo; conditions: stress-susceptible CMMS mice; ketanserin 2 mg/kg alone; vs values after CMMS
male C57BI/6J mice [2] = test: sucrose preference test (SPT) after chronic multimodal stress (CMMS); type: in vivo; conditions: stress-susceptible CMMS mice; ketanserin 2 mg/kg alone (ketanserin-vehicle); vs values after CMMS
5-HT2Rs = conditions: cited from earlier work
male C57BI/6J mice [3] = test: locomotion (video, Any-maze) after injection; type: in vivo; conditions: ketanserin 2 mg/kg pretreatment, recorded 90 minutes after second injection, with or without psilocybin

Sequence of 5-HT1BRs (P28222 whole entry): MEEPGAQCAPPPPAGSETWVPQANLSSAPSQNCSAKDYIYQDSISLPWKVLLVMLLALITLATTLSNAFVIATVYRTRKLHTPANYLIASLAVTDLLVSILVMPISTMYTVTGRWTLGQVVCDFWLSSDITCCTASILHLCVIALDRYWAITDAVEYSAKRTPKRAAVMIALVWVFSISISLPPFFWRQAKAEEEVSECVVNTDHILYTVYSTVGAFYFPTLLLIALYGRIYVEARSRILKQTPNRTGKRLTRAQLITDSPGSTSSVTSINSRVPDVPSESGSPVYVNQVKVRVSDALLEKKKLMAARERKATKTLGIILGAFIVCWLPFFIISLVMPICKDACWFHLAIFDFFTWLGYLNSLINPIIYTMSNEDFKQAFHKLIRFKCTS

Structure (SMILES) | affinity for 5-HT1BRs (5-HT1BRs) | Ki (5-HTRs) [nM] | preference for female urine (male C57BI/6J mice [1]) | sucrose preference (SP) (male C57BI/6J mice [2]) | acute psilocybin-induced changes in processing of negative emotional stimuli (5-HT2Rs; healthy subjects) | psilocybin-induced self-reported perceptual distortions (5-HT2Rs; humans, ketanserin block of 5-HT2Rs) | time mobile / mobility (male C57BI/6J mice [3]) | total distance travelled (male C57BI/6J mice [3]) | time mobile / mobility (male C57BI/6J mice [3]; listed as Ketanserin)
CN(C)CCc1c[nH]c2cccc(O)c12 [Psilocin] | high affinity | 3 to 500 |  |  |  |  |  |  | 
O=C(c1ccc(F)cc1)C1CCN(CCn2c(=O)[nH]c3ccccc3c2=O)CC1 [ketanserin, Ketanserin] |  |  | nor ketanserin alone (p=0.072; n=4) had a significant effect; also recorded: no significant effect on either behavior | no significant effect on either behavior | prevented | significantly attenuates self-reported perceptual distortions; also recorded: attenuates psilocybin-induced perceptual alterations | significant effect of ketanserin | main effect of ketanserin | significant increase in mobility
